Tested on: SALL4 mRNA
Test: In situ hybridization for SALL4 RNA in rabbit embryo limb buds
Assay type: in vivo
Settings: treated vs untreated
Protocol: A fully automated SALL4 ISH assay was performed on Leica BOND RX IHC & ISH stainer with the BOND Research Detection System (Leica, Cat. No. DS9455). Formalin fixed paraffin embedded (FFPE) rabbit embryos were sectioned at four micron thickness, baked at 60° C. for 1 hour and then deparaffinized in Dewax solution at 72° C. Antigen retrieval was performed in Epitope Retrieval 2 (ER2, pH 9.0) for 15 min at 95° C. Custom-designed rabbit SALL4 target probe was applied on the slides and incubated at 42° C. for 2 hours. SALL4 signal was then amplified with the RNAscope LS Multiplex Fluorescent Reagent Kit (ACD, Cat. No. 322800) using the BOND RX default ACD ISH protocol. SALL4 signal was detected with Opal TSA fluorophore 570 (PerkinElmer, Cat. No. FP1488001KT) at a 1:1500 dilution for a 30 min incubation. Slides were then coverslipped manually using ProLong Diamond Antifade Mountant with DAPI (Life Technology, Catalog No. P36966). After whole slide scan at 4× magnification was completed, 40× magnification images were acquired using Perkin Elmer Vectra 3.0 multispectral image platform.

O=C1CCC(N2C(=O)c3ccccc3C2=O)C(=O)N1 (stereo not shown) [thalidomide]
SALL4 mRNA levels (ISH): not altered upon thalidomide treatment

Source: patent publication US12590953B2, “Methods for screening cereblon modifying compounds” (CELGENE CORPORATION, priority 2018, dated 2026)
